In ChEMBL document CHEMBL1201862, “PubChem BioAssay data set” (2004) one finds IC50, AC50 and EC50 data, which are given here for five compounds.

Test [1] has as its target T1, 1-phosphatidylinositol 4,5-bisphosphate phosphodiesterase gamma-1 (Homo sapiens, UniProt P19174).
T1 sequence (P19174 whole entry): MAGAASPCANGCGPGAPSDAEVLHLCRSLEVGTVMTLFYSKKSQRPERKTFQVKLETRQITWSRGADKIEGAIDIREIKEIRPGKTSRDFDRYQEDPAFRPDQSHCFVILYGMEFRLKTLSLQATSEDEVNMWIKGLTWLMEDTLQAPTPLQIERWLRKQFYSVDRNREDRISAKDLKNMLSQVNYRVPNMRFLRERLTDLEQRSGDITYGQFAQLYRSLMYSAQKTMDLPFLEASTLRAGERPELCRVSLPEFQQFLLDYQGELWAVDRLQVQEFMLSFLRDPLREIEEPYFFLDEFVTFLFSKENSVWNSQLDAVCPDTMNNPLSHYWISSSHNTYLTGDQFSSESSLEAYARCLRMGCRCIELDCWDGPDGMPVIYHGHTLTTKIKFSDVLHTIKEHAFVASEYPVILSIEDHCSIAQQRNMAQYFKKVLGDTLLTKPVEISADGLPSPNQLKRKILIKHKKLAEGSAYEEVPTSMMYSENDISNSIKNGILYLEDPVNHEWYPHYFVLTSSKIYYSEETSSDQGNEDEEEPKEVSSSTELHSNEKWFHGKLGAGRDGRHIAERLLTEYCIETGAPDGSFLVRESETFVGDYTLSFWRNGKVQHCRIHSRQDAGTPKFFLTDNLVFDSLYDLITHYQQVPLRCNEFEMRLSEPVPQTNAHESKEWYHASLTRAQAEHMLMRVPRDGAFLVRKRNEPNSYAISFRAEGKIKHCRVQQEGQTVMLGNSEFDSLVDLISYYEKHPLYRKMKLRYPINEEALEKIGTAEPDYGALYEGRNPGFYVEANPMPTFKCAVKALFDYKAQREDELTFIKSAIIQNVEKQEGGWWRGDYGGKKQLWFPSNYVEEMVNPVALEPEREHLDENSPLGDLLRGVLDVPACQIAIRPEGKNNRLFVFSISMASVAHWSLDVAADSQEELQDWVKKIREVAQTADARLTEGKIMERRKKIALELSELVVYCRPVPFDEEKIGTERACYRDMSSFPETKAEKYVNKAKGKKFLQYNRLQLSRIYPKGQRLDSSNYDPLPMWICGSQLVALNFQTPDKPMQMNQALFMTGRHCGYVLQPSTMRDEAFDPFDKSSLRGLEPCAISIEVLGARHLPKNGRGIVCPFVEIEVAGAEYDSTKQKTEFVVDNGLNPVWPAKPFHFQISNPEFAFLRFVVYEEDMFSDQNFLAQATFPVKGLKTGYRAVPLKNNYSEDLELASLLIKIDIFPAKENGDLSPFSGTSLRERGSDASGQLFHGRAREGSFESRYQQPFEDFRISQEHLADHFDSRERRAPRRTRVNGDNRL
Kind of test: Counterscreen for inhibitors of phospholipase C isozymes (PLC-B3): Fluorescence-based biochemical high throughput dose response assay to identify inhibitors of phospholipase C isozymes (PLC-gamma1). Background: The purpose of a counterscreen is to sort out artefacts and off-target activity.

Test [2] addresses T2, 1-phosphatidylinositol 4,5-bisphosphate phosphodiesterase beta-3 (Homo sapiens, UniProt Q01970).
T2 sequence (Q01970 whole entry): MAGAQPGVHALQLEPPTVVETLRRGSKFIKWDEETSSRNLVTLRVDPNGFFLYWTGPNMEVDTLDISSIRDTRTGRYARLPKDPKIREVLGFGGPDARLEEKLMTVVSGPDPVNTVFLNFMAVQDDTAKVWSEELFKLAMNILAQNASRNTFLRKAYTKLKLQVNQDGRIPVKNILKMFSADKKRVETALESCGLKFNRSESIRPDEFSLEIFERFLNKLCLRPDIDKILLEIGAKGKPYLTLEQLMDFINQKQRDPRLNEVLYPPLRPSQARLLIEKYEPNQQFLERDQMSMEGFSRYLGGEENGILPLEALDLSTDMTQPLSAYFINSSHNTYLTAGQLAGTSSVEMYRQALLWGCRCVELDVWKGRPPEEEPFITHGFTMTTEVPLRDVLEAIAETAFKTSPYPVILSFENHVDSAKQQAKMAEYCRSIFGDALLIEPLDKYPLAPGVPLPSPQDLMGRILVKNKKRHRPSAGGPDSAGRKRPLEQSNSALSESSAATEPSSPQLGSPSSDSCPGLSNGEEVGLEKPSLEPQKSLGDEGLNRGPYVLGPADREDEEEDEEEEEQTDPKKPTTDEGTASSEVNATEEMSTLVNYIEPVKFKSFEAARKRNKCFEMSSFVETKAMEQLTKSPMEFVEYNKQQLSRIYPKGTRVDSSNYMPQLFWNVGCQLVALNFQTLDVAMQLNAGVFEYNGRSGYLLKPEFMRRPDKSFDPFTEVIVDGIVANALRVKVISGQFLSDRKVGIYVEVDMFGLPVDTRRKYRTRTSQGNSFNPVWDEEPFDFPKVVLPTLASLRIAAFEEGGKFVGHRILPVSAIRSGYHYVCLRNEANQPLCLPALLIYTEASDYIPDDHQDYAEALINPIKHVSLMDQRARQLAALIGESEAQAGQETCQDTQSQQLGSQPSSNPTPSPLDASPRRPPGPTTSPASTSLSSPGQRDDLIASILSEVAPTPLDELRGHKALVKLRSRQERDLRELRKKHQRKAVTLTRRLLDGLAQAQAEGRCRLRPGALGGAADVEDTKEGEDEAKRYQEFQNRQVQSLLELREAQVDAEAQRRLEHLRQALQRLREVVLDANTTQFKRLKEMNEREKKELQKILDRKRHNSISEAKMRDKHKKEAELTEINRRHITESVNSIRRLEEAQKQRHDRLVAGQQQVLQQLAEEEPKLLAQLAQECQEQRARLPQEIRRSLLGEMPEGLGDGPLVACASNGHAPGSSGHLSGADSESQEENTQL
The test can be described thus: Fluorescence-based biochemical high throughput dose response assay to identify inhibitors of phospholipase C isozymes (PLC-B3).

Test [3] concerns the target Paired box protein Pax-8 (Homo sapiens, UniProt Q06710). Kind of test: PAX8 transcriptional activity inhibition in RMG-I – RMG-I cells, luciferase, cherry-pick, dose response (AID 687027).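 Note: luciferase reporter driven by Pax8 target thyroperoxidase promoter measured by SteadyGlo luminescence.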 In kind it is functional, cell-based.
The nature of test [4]: potency of ADAM10 substrate cleavage blockers – biochemical, QFRET, dose response (AID 743254).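 Note: ADAM10 enzyme with the DM2 quenched FRET peptide as substrate; EDANS fluorescence gain as the protease cuts the substrate; inhibitor potency against ADAM10 proteolytic activity.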
Test [5] concerns the target Disintegrin and metalloproteinase domain-containing protein 17 (Homo sapiens, UniProt P78536). The test can be described thus: inhibition of ADAM17 substrate cleavage – biochemical, quenched FRET substrate, counter-screen for ADAM10 exosite inhibitor project, dose response (AID 743253).
In test [6] the target is Peroxisome proliferator-activated receptor gamma/Nuclear receptor coactivator 1 (Homo sapiens, UniProt P37231). The test can be described thus: TR-FRET dose response biochemical High Throughput Screening assay for agonists of the steroid receptor coactivator 1 (SRC-1) recruitment by the peroxisome proliferator-activated receptor gamma (PPAR gamma): non-selective agonists. [Related pubchem assays (depositor defined):AID1300, AID1808, AID504735, AID631]. In kind it is protein assay.
Sequence of Peroxisome proliferator-activated receptor gamma/Nuclear receptor coactivator 1 (P37231 whole entry): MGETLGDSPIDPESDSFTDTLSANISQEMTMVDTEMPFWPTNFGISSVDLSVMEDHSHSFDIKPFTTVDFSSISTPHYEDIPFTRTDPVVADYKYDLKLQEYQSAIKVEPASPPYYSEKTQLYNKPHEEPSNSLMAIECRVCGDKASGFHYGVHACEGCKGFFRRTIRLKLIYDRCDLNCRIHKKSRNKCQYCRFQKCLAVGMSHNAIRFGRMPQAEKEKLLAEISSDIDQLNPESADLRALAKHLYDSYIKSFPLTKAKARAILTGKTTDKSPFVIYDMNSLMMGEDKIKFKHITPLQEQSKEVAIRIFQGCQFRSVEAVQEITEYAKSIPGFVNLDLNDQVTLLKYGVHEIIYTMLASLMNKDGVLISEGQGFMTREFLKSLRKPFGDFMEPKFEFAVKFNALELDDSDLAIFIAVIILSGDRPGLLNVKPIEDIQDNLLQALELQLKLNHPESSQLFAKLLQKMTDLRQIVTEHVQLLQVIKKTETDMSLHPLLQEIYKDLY
Sequence of Peroxisome proliferator-activated receptor gamma/Nuclear receptor coactivator 1 (Q15788 whole entry, further chain): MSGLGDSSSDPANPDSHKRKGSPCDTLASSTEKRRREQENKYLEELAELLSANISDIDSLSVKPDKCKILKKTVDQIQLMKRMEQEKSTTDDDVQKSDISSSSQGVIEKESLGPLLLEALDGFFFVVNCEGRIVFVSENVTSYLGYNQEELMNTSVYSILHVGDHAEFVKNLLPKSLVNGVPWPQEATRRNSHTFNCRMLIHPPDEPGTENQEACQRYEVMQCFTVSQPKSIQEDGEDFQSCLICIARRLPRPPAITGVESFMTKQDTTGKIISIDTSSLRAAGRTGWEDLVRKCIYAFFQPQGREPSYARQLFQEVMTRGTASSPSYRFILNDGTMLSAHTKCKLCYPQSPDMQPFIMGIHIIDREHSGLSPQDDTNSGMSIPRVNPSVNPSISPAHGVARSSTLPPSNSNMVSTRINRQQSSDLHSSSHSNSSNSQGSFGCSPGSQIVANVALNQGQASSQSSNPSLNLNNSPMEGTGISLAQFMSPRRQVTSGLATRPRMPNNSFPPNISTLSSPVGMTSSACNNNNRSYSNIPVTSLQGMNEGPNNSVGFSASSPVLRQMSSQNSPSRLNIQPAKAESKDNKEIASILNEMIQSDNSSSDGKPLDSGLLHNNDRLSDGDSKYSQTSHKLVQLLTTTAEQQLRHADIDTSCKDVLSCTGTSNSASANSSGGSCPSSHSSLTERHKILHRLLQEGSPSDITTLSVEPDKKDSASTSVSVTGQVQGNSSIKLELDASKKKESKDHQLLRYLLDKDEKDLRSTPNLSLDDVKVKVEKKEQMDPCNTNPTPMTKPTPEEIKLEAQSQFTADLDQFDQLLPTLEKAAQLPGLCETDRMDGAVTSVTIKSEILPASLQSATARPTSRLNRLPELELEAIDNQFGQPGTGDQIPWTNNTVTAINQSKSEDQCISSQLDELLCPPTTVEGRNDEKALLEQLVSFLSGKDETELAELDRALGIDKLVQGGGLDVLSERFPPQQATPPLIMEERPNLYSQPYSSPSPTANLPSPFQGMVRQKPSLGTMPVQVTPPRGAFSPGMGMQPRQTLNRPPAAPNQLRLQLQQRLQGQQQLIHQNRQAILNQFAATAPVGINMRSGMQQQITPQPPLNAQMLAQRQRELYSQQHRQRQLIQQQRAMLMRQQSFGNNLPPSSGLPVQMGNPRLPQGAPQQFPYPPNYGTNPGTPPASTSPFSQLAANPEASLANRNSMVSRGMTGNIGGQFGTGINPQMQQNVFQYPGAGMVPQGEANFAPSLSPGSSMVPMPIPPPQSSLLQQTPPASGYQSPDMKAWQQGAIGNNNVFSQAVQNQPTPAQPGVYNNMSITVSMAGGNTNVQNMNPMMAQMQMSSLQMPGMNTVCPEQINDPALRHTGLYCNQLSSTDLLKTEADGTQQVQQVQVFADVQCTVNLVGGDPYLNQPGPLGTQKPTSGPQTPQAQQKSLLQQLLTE

In test [7] the target is Peroxisome proliferator-activated receptor gamma/Nuclear receptor coactivator 3 (Homo sapiens, UniProt P37231). The test can be described thus: TR-FRET dose response biochemical High Throughput Screening assay for agonists of the steroid receptor coactivator 3 (SRC-3) recruitment by the peroxisome proliferator-activated receptor gamma (PPAR gamma): non-selective agonists. [Related pubchem assays: 1301 (Confirmation screen.), 1048 (Primary screen.)]. In kind it is functional. In general terms: In TR-FRET formats the signal depends on donor and acceptor labels being close together.

In test [8] the target is Peroxisome proliferator-activated receptor gamma/Nuclear receptor coactivator 2 (Homo sapiens, UniProt P37231). Kind of test: TR-FRET dose response biochemical High Throughput Screening assay for agonists of the steroid receptor coactivator 2 (SRC-2) recruitment by the peroxisome proliferator-activated receptor gamma (PPAR gamma): non-selective agonists. [Related pubchem assays: 1297, 1032 ]. The class given is functional.

Test [9] is described as follows: NIH-3T3 fibroblast cytotoxicity, dose response, cytotoxicity control, cell-based, fluorescence, Alamar Blue, secondary assay (AID 2327).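 Note: NIH-3T3 mouse fibroblasts cultured with fluconazole at 8 µg/mL.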 In kind it is functional.
A short description of test [10]: luciferase reporter signal suppression in cells – H4 neuroglioma cells, luminescence, dose response (AID 1990). In kind it is functional, cell-based. (Reporter assays use an easily measured gene product as a stand-in for the process of interest.)
Test [11] is described as follows: Luminescence Cell-Based Dose Response HTS to Identify Inhibitors of 5'UTR Stem-Loop Driven Prion Protein mRNA Translation in H4 Neuroglioblastoma Cells. [Related pubchem assays: 1827 (Project Summary), 1813 (Primary HTS)]. In kind it is functional.
Test [12] in a line: alpha-synuclein stem-loop luciferase translation blockers – H4 neuroglioma cells, luminescence, confirmation (AID 1988). The class given is functional, cell-based.
The nature of test [13]: fluconazole-exposed Candida albicans growth modulators – fluorescence, retest, confirmation (AID 2467). In kind it is functional, cell-based.
Test [14] deals with Heat shock protein HSP 90-alpha (Homo sapiens, UniProt P07900). The class given is functional, organism-based.
The subject of test [15] is INS1. Kind of test: INS-1E survival protection against cytokine death – cell-based, luminescence, retest, dose response (AID 449756).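 Note: cell death triggered by IL-1 beta plus TNF-alpha plus IFN-gamma mixture; protective hits raise ATP signal compared with cytokine alone wells.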 The class given is functional. Particulars: Rattus norvegicus.

Active and inactive are the calls of the source.

Sequence of Disintegrin and metalloproteinase domain-containing protein 17 (P78536 whole entry, the tested form may be a part): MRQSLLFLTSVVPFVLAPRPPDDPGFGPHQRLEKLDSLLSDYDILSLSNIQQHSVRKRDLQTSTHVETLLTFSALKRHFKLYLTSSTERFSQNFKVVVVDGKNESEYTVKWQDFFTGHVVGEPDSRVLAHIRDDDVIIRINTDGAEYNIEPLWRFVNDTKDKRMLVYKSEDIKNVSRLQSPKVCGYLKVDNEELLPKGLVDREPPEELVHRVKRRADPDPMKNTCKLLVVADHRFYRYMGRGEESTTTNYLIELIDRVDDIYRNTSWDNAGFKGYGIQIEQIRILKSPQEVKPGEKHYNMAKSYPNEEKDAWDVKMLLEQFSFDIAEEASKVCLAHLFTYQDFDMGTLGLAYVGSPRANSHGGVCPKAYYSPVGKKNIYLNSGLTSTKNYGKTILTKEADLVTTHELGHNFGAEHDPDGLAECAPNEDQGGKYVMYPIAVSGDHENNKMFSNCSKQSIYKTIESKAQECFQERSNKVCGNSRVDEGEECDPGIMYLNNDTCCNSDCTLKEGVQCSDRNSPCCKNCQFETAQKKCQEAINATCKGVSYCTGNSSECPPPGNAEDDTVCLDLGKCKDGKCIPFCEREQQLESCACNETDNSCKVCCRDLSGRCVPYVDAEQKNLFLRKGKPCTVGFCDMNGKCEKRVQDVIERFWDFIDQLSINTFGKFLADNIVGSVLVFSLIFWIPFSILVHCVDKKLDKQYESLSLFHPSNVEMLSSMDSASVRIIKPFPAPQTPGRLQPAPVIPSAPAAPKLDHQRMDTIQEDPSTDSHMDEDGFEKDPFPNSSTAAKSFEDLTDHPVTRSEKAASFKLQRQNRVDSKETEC
Sequence of Paired box protein Pax-8 (Q06710 whole entry): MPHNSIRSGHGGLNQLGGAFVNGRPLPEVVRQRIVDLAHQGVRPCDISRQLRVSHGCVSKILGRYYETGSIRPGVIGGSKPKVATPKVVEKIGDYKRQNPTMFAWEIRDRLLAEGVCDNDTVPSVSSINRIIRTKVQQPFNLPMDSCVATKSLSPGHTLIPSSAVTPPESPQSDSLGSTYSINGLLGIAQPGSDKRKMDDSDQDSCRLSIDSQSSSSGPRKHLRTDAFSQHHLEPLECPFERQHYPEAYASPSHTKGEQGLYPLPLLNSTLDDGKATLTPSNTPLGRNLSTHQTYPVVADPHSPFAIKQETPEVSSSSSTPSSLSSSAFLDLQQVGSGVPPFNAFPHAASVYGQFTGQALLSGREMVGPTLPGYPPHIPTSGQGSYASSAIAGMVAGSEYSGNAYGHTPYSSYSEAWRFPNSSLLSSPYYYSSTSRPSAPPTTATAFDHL

On to `CCN(C(=O)COC(=O)c1ccc(C=O)cc1)c1c(N)n(Cc2ccccc2)c(=O)[nH]c1=O`, for which the IC50 in test [1] and in test [2] was > 122 µM (inactive) throughout.

Consider `C=CCC[C@@H](Cc1ccc(F)cc1)C(=O)OC[C@@H](Cc1c[nH]c2ccccc12)NC(=O)[C@H](CC=C)CC(=O)N(CCO)Cc1ccccc1`, for which the half-maximal activity concentration (AC50) in test [3] was 10.9 µM (active). For the same compound, the IC50 was 15.4 µM (inactive) in [4] and > 69.5 µM (inactive) in test [5].

`NS(=O)(=O)c1ccc(N/N=C/c2ccc(O)cc2O)c([N+](=O)[O-])c1`: the IC50 in test [1] and in [2] was > 123 µM (inactive) in each case.

As to `COc1ccc(NC(C)C(=O)N/N=C/c2ccccc2OCc2cccc(Br)c2)cc1` (stereo unspecified), the EC50 is > 79.4 µM (inactive) in [6], > 79.4 µM (not active) in test [7] and > 79.4 µM (not active) in [8]. In addition, the IC50 in test [4] and in test [5] was > 69.5 µM (inactive) in each case.

`CCOc1ccc(C(Nc2cccnc2)c2cc(Cl)c3cccnc3c2O)cc1` (stereo unspecified): the concentration for a half-maximal effect (EC50) was 7.98 µM (inconclusive) in test [9]; 12.1 µM (active) in test [10]; 13.7 µM (active) in [11]; > 120 µM (not active) in test [12]; 0.348 µM (active) in test [13]. For the same compound, the AC50 was 2.68 µM (active) in [14] and 3.6 µM (active) in test [15]. Moreover, the IC50 is 5.53 µM (active) in test [4] and 9.11 µM (active) in test [5].

In general, IC50 refers to the concentration at which inhibition is half-maximal. A word on the AC50: it is the concentration giving half of the maximal activity seen. What is called EC50 is the concentration giving half of the maximal effect.
